The values below come from patent publication US20240366639A1, “HETEROCYCLIC GLP-1 AGONISTS” (GASHERBRUM BIO, INC., priority 2021, published 2024).

In this assay the target is T1, GLP-1 Receptor (GLP1R) (Homo sapiens, UniProt P43220).
T1 construct: host or cells: HEK293/GLP1R/CRE-LUC
In words: GLP-1R agonist cAMP stimulation assay (Method 3). The format is cell-based. As to conditions: HEK293/GLP1R/CRE-LUC cells (HDB), Method 3, 30 min incubation. The protocol: Method 3: Activation of GLP-1 receptor is known to stimulate cyclic AMP (cAMP) production in cells which indicates primary coupling to the Gαs subunit of the G protein heterotrimeric complex.
To optimize functional activity directed toward Gαs coupling, a HEK293/CRE-Luc cell line developed by HDB stably expressing the GLP-1 Receptor was used, 200× concentration of compound working solutions were prepared (Agilent Technologies Bravo) with 1/2 log serial dilution in 384-well Echo LDV plate (Labcyte, Cat #LP-0200). 50 nL/well 200× concentration of compound working solutions were moved to 384-well white low volume plate (Greiner, Cat #784075) using Labcyte ECHO550. 1×10^5 cells/mL HEK293/GLP1R/CRE-LUC(HD Biosciences) cell suspensions prepared with assay buffer [DPBS containing 0.5 mM IBMX (Sigma, Cat #15879) and 0.1% BSA (GENVIEW, Cat #FA016-100 g)], 10 μL cell suspensions were added to each well of previous generated assay plate which already contains 50 nL compound at 200× concentration using ThermoFisher Multidrop Combi (1000 cells/well). Seal the plate and incubate at 37° C. with 5% CO2 for 30 min.
After incubation the cAMP assay signal was generated using cAMP dynamic 2 Kit (Cisbio). 5 μL cAMP-d2 working solution was added to each well, followed with 5 μL Anti-cAMP antibody-cryptate working solution added to each well using ThermoFisher Multidrop Combi. Incubate at room temperature for 1 hour protected from light. Read the fluorescence at 665 nm and 615 nm with Reader PerkinElmer EnVision.

The mark [1] stands for this setting: read-out: GLP1R cAMP Stimulation DR: EC50 (nM) [Species: Human, Assay Cell Line: HDB].
Setting [2] is: read-out: GLP1R cAMP Stimulation DR: pEC50 (M) [Species: Human, Assay Cell Line: HDB] (converted).

Each structure is given as a SMILES string. Like-named read-outs stand apart in the source and are kept apart here. Where only a bound is given, the exact number is not on record here.

T1 sequence (P43220 24-463): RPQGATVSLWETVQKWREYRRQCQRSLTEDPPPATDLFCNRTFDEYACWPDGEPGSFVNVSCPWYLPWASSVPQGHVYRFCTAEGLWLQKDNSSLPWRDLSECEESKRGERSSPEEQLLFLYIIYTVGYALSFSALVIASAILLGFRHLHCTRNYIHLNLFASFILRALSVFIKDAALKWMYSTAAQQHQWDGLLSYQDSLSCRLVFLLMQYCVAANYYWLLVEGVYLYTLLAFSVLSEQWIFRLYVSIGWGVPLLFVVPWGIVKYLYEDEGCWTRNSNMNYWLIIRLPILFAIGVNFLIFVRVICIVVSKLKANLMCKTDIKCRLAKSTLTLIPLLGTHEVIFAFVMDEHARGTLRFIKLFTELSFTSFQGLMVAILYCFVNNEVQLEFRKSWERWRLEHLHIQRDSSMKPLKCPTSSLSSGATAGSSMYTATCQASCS

Take `Cc1cc(-n2nc3c(c2-n2ccn(-c4ccc(P(C)(C)=O)cc4)c2=O)[C@H](C)N(C(=O)c2cc4cc(C5CCOCC5)ccc4n2[C@@]2(c4noc(=O)[nH]4)C[C@@H]2C)CC3)cc(C)c1F` [Compound 101a, 3-((1S,2S)-1-(2-((S)-3-(3-(4-(Dimethylphosphoryl)phenyl)-2-oxo-2,3-dihydro-1H-imidazol-1-yl)-2-(4-fluoro-3,5-dimethylphenyl)-4-methyl-4,5,6,7-tetrahydro-2H-pyrazolo[4,3-c]pyridine-5-carbonyl)-5-(tetrahydro-2H-pyran-4-yl)-1H-indol-1-yl)-2-methylcyclopropyl)-1,2,4-oxadiazol-5(4H)-one]: the EC50 by setting is: under setting [1], 0.1 to 0.2 nM; under setting [2], 0.1 to 1 nM.
As to `Cc1cc(-n2nc3c(c2-n2ccn(-c4ccc(P(C)(C)=O)nc4)c2=O)[C@H](C)N(C(=O)c2cc4cc(C5CCOCC5)ccc4n2[C@@]2(c4noc(=O)[nH]4)C[C@@H]2C)CC3)cc(C)c1F` [Compound 105a, 3-((1S,2S)-1-(2-((S)-3-(3-(6-(dimethylphosphoryl)pyridin-3-yl)-2-oxo-2,3-dihydro-1H-imidazol-1-yl)-2-(4-fluoro-3,5-dimethylphenyl)-4-methyl-4,5,6,7-tetrahydro-2H-pyrazolo[4,3-c]pyridine-5-carbonyl)-5-(tetrahydro-2H-pyran-4-yl)-1H-indol-1-yl)-2-methylcyclopropyl)-1,2,4-oxadiazol-5(4H)-one], the EC50 is 0.1 to 0.2 nM under setting [1] and 0.1 to 1 nM under setting [2].
In the case of `CNc1cc(-n2ccn(-c3c4c(nn3-c3cc(C)c(F)c(C)c3)CCN(C(=O)c3cc5cc(C6CCOCC6)ccc5n3[C@@]3(c5noc(=O)[nH]5)C[C@@H]3C)[C@H]4C)c2=O)ccc1P(C)(C)=O` [Compound 106a, 3-((1S,2S)-1-(2-((S)-3-(3-(4-(dimethylphosphoryl)-3-(methylamino)phenyl)-2-oxo-2,3-dihydro-1H-imidazol-1-yl)-2-(4-fluoro-3,5-dimethylphenyl)-4-methyl-4,5,6,7-tetrahydro-2H-pyrazolo[4,3-c]pyridine-5-carbonyl)-5-(tetrahydro-2H-pyran-4-yl)-1H-indol-1-yl)-2-methylcyclopropyl)-1,2,4-oxadiazol-5(4H)-one], the EC50 was below 0.1 nM under setting [1] and at most 0.1 nM under setting [2].
In the same order, the values of `Cc1cc(-n2nc3c(c2-n2ccn(-c4cccc(P(C)(C)=O)c4O)c2=O)[C@H](C)N(C(=O)c2cc4cc(C5CCOCC5)ccc4n2[C@@]2(c4noc(=O)[nH]4)C[C@@H]2C)CC3)cc(C)c1F` [Compound 107a, 3-((1S,2S)-1-(2-((S)-3-(3-(3-(dimethylphosphoryl)-2-hydroxyphenyl)-2-oxo-2,3-dihydro-1H-imidazol-1-yl)-2-(4-fluoro-3,5-dimethylphenyl)-4-methyl-4,5,6,7-tetrahydro-2H-pyrazolo[4,3-c]pyridine-5-carbonyl)-5-(tetrahydro-2H-pyran-4-yl)-1H-indol-1-yl)-2-methylcyclopropyl)-1,2,4-oxadiazol-5(4H)-one] are 0.2 to 0.5 nM and 0.1 to 1 nM.
With `Cc1cc(-n2nc3c(c2-n2ccn(-c4ccc(P(C)(C)=O)c(F)c4)c2=O)[C@H](C)N(C(=O)c2cc4cc(C5CCOCC5)ccc4n2[C@@]2(c4noc(=O)[nH]4)C[C@@H]2C)CC3)cc(C)c1F` [Compound 108a, 3-((1S,2S)-1-(2-((S)-3-(3-(4-(dimethylphosphoryl)-3-fluorophenyl)-2-oxo-2,3-dihydro-1H-imidazol-1-yl)-2-(4-fluoro-3,5-dimethylphenyl)-4-methyl-4,5,6,7-tetrahydro-2H-pyrazolo[4,3-c]pyridine-5-carbonyl)-5-(tetrahydro-2H-pyran-4-yl)-1H-indol-1-yl)-2-methylcyclopropyl)-1,2,4-oxadiazol-5(4H)-one], the EC50 runs as follows: under setting [1], 0.2 to 0.5 nM; under setting [2], 0.1 to 1 nM.
